For 15 compounds, IC50 results are on record in BindingDB's records for doi:10.1021/jm00023a009 (University of Paris, 1995).

As usually defined, the IC50 is the concentration needed to halve the response being measured. A high value points to weaker potency in that assay.

A short description of this assay: In vitro inhibition of EGF-stimulated DNA synthesis of ER 22 cells by following the incorporation of methyl-[3H]thymidine.
The compound `CC(C)(C)c1cc(O)cc(-c2ccc(C(=O)NCc3ccccc3)cc2)c1` [3'-tert-Butyl-5'-hydroxy-biphenyl-4-carboxylic acid benzylamide] registered an IC50 of 5.4 µM.
Turning to `O=C(NCc1ccccc1)c1ccc(-c2cc(O)cc(-c3ccccc3)c2)cc1`, the IC50 is 8 µM.
The compound `COCOc1cc(-c2ccccc2)ccc1-c1ccc(C(=O)OC)cc1` came in with an IC50 of more than 5 µM.
Compound `CC(COC(=O)c1ccc(-c2cc(O)cc(-c3ccccc3)c2)cc1)CC(C)(C)C` (stereo not given) returned an IC50 of more than 5 µM.
The compound `O=C(O)c1ccc(-c2cc(O)cc(-c3ccccc3)c2)cc1` showed an IC50 of 10 µM.
The result for `COCOc1cc(C(C)(C)C)ccc1-c1ccc(C(=O)OC)cc1` [4'-tert-Butyl-2'-methoxymethoxy-biphenyl-4-carboxylic acid methyl ester] reads 10 µM; that for `COC(=O)c1ccc(-c2ccc(C(C)(C)C)cc2O)cc1`, more than 5 µM; that for `O=C(NCc1ccccc1)c1ccc(-c2ccc(-c3ccccc3)cc2O)cc1` [2'-Hydroxy-[1,1';4',1'']terphenyl-4-carboxylic acid benzylamide], 1.4 µM.
For `COCOc1cc(-c2ccccc2)ccc1-c1ccc(C(=O)O)cc1`, the IC50 worked out at 10 µM.
The value for `CC(COC(=O)c1ccc(-c2cc(O)cc(C(C)(C)C)c2)cc1)CC(C)(C)C` (stereo not given) was more than 5 µM; that for `CC(COC(=O)c1ccc(-c2cccc(-c3ccccc3)c2O)cc1)CC(C)(C)C` (stereo not given) was more than 10 µM; that for `COCOc1cc(-c2ccccc2)ccc1-c1ccc(C(=O)NCc2ccccc2)cc1` [2'-Methoxymethoxy-[1,1';4',1'']terphenyl-4-carboxylic acid benzylamide] was 1.1 µM.
In the case of `COC(=O)c1ccc(-c2cccc(-c3ccccc3)c2O)cc1` [2'-Hydroxy-[1,1';3',1'']terphenyl-4-carboxylic acid methyl ester], the half-inhibitory concentration (IC50) was more than 5 µM.
In the case of `CC(C)(C)c1cc(O)cc(-c2ccc(C(=O)O)cc2)c1` [3'-tert-Butyl-5'-hydroxy-biphenyl-4-carboxylic acid], the IC50 was more than 20 µM.
With `COCOc1c(-c2ccccc2)cccc1-c1ccc(C(=O)OCC(C)CC(C)(C)C)cc1` (stereo not given), the IC50 was more than 10 µM.
